The text below walks through data of US20150315241A1, “Antibiotic Peptides” (priority 2007, published 2015).

≈ marks a conversion by molar mass, not a printed value. Where a SMILES comes first, the peptide text is derived from it. Where no end group is shown, it is not given here. [ ]: non-standard residue; d: D form. NMeL = CN[C@@H](CC(C)C)C(=O)O; Orn = NCCC[C@H](N)C(=O)O

The test system of one series is S. typhi S5. It is filed as cell-based, Salmonella typhi. Particulars: S5, 20 h. The gist of the method:
(§1)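 Bacteria grown overnight in nutrient broth at 37° C were diluted to 5×10^6 CFU/mL in 1% TSB and exposed to peptides serially halved from 125 μg/mL to 60 ng/mL final. After 20 h at 37° C, A595 gave the MIC, measured in triplicate.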

The next series concerns E. coli 45849. Briefly: Growth inhibition assay (MIC). The format is cell-based, Escherichia coli. The note with it: multidrug resistant strain; 1% TSB, 37° C., 20 hrs. The method in brief: as §1
The next series can be described thus: in vitro. It is filed as in vitro ADME, mouse. Particulars: 37° C. The gist of the method: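 Peptide or peptidomimetic (0.5 mg/mL aqueous stock) incubated in 25% pooled mouse serum at 37 °C, sampled at 0–6 h, in duplicate. Proteins precipitated with 15% TCA; supernatants neutralized and analyzed by RP-HPLC with 0.1% TFA. Degradation products identified by MALDI-TOF/TOF-MS.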

For a further series, the system named is K. Pneumonia 123132. Briefly: Growth inhibition assay (MIC). It is filed as cell-based, Klebsiella pneumoniae. Particulars: multidrug resistant strain; 1% TSB, 37° C., 20 hrs. The gist of the method: as §1
The test system of series [1] is K. Pneumonia K6, ATCC 700603. Briefly: Growth inhibition assay (MIC). The note with it: multidrug resistant strain; 1% TSB, 37° C., 20 hrs. It is filed as cell-based, Klebsiella pneumoniae. The gist of the method:
as §1

Another series relates to B. subtilis 347. The format is cell-based, Bactillus subtillis. Particulars: 347, 20 h. The method in brief:
(§2)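 Two-fold serial dilution in 1% TSB, final 125 μg/mL to 60 ng/mL; inoculum 5×10^6 CFU/mL (before 1:1 mixing with peptide). Incubated 20 hrs at 37° C., growth read as absorbance at 595 nm, in triplicate with sterile water as negative control.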

The subject of a further series is M. luteus ATCC 10240. It is filed as cell-based, Micrococcus luteus. Particulars: ATCC 10240, 20 h. The method in brief:
as §2

The subject of series [2] is R. radiobatter ATCC 15955. The experiment in a line: Growth inhibition assay (MIC). The format is cell-based, Rhizobium radiobacter. Particulars: multidrug resistant strain; 1% TSB, 37° C., 20 hrs. The method in brief:
as §1

A further series deals with E. coli D31. The format is cell-based, Escherichia coli. The note with it: D31, 20 h. The method in brief: as §1
In series [3] the test system is S. enterica subsp. Enterica serovar. typhi G10215 ATCC 700408. The format is cell-based, Salmonella enterica. Particulars: ATCC 700408, 20 h. The gist of the method: as §1
The next series has as its system K. pneumonia 681. The format is cell-based, Klebsiella pneumoniae. The note with it: 20 h. The method in brief: as §2
The subject of the next series is E. coli BL 21 AI. Briefly: Growth inhibition assay (MIC). The format is cell-based, Escherichia coli. Particulars: 1% TSB, 37° C., 20 hrs. The gist of the method:
as §2

The next series has as its system E. coli 10233. It is filed as cell-based, Escherichia coli. The note with it: 10233, 20 h. The method in brief: as §2
Another series has as its system E. coli 1103. The format is cell-based, Escherichia coli. The note with it: 1103, 20 h. The gist of the method: as §2
Another series relates to E. coli DC 2. The experiment in a line: Growth inhibition assay (MIC). Particulars: 1% TSB, 37° C., 20 hrs. It is filed as cell-based, Escherichia coli. The gist of the method:
as §2

Take `CC[C@H](C)[C@H](NC(=O)[C@H](Cc1ccc(O)cc1)NC(=O)[C@@H](NC(=O)[C@@H]1CCCN1C(=O)[C@H](CCCNC(=N)N)NC(=O)[C@H](CC(N)=O)NC(=O)[C@H](CC(N)=O)NC(=O)[C@H](CCCN)NC(C)=O)C(C)C)C(=O)N1CCC[C@H]1C(=O)N[C@@H](CCC(N)=O)C(=O)N1CCC[C@H]1C(=O)N[C@@H](CCCNC(=N)N)C(=O)N1CCC[C@H]1C(=O)N1CCC[C@H]1C(=O)N[C@@H](Cc1c[nH]cn1)C(=O)N1CCC[C@H]1C(=O)N[C@@H](CCCNC(=N)N)C(=O)N(C)[C@@H](CC(C)C)C(N)=O` [compound 32] (Ac-[Orn]NNRPVYIPQPRPPHPR[NMeL]-NH2): in the series on S. typhi S5, the “MIC S. typhi S5” value was 32 µg/mL (≈ 14.4 µM). Further, in the series on E. coli 45849, the “MIC E. coli 45849” value amounted to 8 µg/mL (≈ 3.6 µM). In “in vitro” (25% aqueous mouse serum), this molecule registered a Half-life time above 360 min. Further, the half-life – broadly, how long it takes for the measured level to halve – at 0.061 mg/mL in the series “in vitro” (mouse, 25% aqueous serum, read-out: half-life) was above 360 min. Also, in the series on K. Pneumonia 123132, the “MIC K. Pneumonia 123132” value is above 64 µg/mL. The “MIC K. Pneumonia K6, ATCC 700603” value in series [1] is above 128 µg/mL. Besides, the “MIC B. subtilis 347” value against B. subtilis 347 is above 125 µg/mL. In addition, in the series on M. luteus ATCC 10240, the “MIC M. luteus ATCC 10240” value came out at 7.81 µg/mL (≈ 3.52 µM). Moreover, the “MIC R. radiobatter ATCC 15955” value in series [2] came out at 1.3 µg/mL (≈ 0.585 µM). Also, in the series with E. coli D31, the “MIC E. coli D31” value worked out at 64 µg/mL (≈ 28.8 µM). In series [3], the “MIC S. enterica subsp. Enterica serovar. typhi G10215 ATCC 700408” value was 8 µg/mL (≈ 3.6 µM). Also, the “MIC K. pneumonia 681” value in the series on K. pneumonia 681 is above 125 µg/mL. In the series with E. coli BL 21 AI, the “MIC E. coli BL 21 AI” value turned out to be 15.63 µg/mL (≈ 7.04 µM). The “MIC E. coli 10233” value against E. coli 10233 came out at 31.25 µg/mL (≈ 14.1 µM). In the series on E. coli 1103, the “MIC E. coli 1103” value came out at 31.4 µg/mL (≈ 14.1 µM).

Regarding GNNRPVYIPKPRPPHPRI-NH2 [compound 17], the “MIC S. typhi S5” value against S. typhi S5 amounted to 16 µg/mL. Also, the “MIC E. coli 45849” value against E. coli 45849 came to 8 µg/mL. Also, the “MIC K. Pneumonia 123132” value in the series on K. Pneumonia 123132 is 16 µg/mL. In addition, in series [1], the “MIC K. Pneumonia K6, ATCC 700603” value worked out at 32 µg/mL. In the series on M. luteus ATCC 10240, the “MIC M. luteus ATCC 10240” value worked out at 0.98 µg/mL. For the same molecule, the “MIC R. radiobatter ATCC 15955” value in [2] is 0.65 µg/mL. In addition, the “MIC E. coli D31” value against E. coli D31 was found to be 32 µg/mL. For the same molecule, in series [3], the “MIC S. enterica subsp. Enterica serovar. typhi G10215 ATCC 700408” value was in the range of 4 to 8 µg/mL. Also, in the series with K. pneumonia 681, the “MIC K. pneumonia 681” value amounted to 31.25 µg/mL. Further, the “MIC E. coli BL 21 AI” value against E. coli BL 21 AI is 0.98 µg/mL. The “MIC E. coli DC 2” value in the series on E. coli DC 2 is 31.25 µg/mL. Moreover, the “MIC E. coli 1103” value in the series with E. coli 1103 came out at 1.95 µg/mL.

For the molecule GNNRPVYIPRPRPPHPRI-NH2 [compound 14], in series [1], the “MIC K. Pneumonia K6, ATCC 700603” value stood at 8 µg/mL. The “MIC M. luteus ATCC 10240” value against M. luteus ATCC 10240 is 0.98 µg/mL. In addition, the “MIC E. coli D31” value against E. coli D31 amounted to 64 µg/mL. Further, the “MIC S. enterica subsp. Enterica serovar. typhi G10215 ATCC 700408” value in [3] is 2 µg/mL. The “MIC K. pneumonia 681” value in the series with K. pneumonia 681 is 15.62 µg/mL. In addition, the “MIC E. coli BL 21 AI” value in the series with E. coli BL 21 AI was found to be 0.49 µg/mL. In the series on E. coli DC 2, the “MIC E. coli DC 2” value was found to be 7.81 µg/mL. The “MIC E. coli 1103” value in the series on E. coli 1103 came out at 0.98 µg/mL.

With H-GNNRPVYLPQPRPPHPRI-NH2 [compound 26], the “MIC S. typhi S5” value against S. typhi S5 stood at 32 µg/mL. In addition, the “MIC E. coli 45849” value in the series with E. coli 45849 amounted to 16 µg/mL. Besides, the “MIC K. Pneumonia 123132” value against K. Pneumonia 123132 was found to be 32 µg/mL. In series [1], the “MIC K. Pneumonia K6, ATCC 700603” value was 128 µg/mL. Further, the “MIC M. luteus ATCC 10240” value against M. luteus ATCC 10240 was 1.95 µg/mL. The “MIC R. radiobatter ATCC 15955” value in [2] amounted to 2.6 µg/mL. The “MIC E. coli D31” value with E. coli D31 is above 128 µg/mL. The “MIC S. enterica subsp. Enterica serovar. typhi G10215 ATCC 700408” value in [3] stood at 4 µg/mL. Also, the “MIC K. pneumonia 681” value against K. pneumonia 681 was found to be 15.62 µg/mL. The “MIC E. coli BL 21 AI” value in the series on E. coli BL 21 AI was 3.91 µg/mL. The “MIC E. coli DC 2” value in the series on E. coli DC 2 came out at 7.81 µg/mL. For the same molecule, the “MIC E. coli 1103” value in the series with E. coli 1103 is 3.91 µg/mL.
